Measurements from patent US20110230481A2, “DERIVATIVES OF TETRABROMOBENZIMIDAZOLE, A PROCESS FOR THE PREPARATION THEREOF, A PHARMACEUTICAL COMPOSITION COMPRISING THE SAME, A METHOD OF USING THE SAME, A METHOD FOR MODULATING OR REGULATING SERINE/THREONINE KINASES, AND SERINE/THREONINE KINASES MODULATING AGENT” (SELVITA S.A., priority 2009, published 2011).

What was measured:
Experiment in all cases: KINOMEscan Max
Assay type in all cases: binding
CSNK2A1 = target: T1, CSNK2A1 (Homo sapiens, UniProt P68400)
T1 construct: purchased Ambit (KINOMEscan Max panel service)
Method: (§1) Kinase panel profiling was performed at Ambit Kinomescan (http://www.ambitbio.com/technology/) using the “KINOMEscan™ Max” assay platform, a high-throughput method for screening small molecule compounds against large numbers of human kinases. KINOMEscan™ is based on a competition binding assay that quantitatively measures the ability of a compound to compete with an immobilized, active-site directed ligand. The assay is performed by combining three components: DNA-tagged kinase; immobilized ligand; and a test compound. The ability of the test compound to compete with the immobilized ligand is measured via quantitative PCR of the DNA tag. For a description of Ambit's assay protocol, see Fabian et al. A small molecule-kinase interaction map for clinical kinase inhibitors. Nat. Biotechnol. 23, 329-336 (2005).

KIT(V559D.V654A) = target: T2, KIT(V559D.V654A) (Homo sapiens, UniProt P10721, V559D/V654A)
T2 construct: purchased Ambit Kinomescan (contract panel)
T2 sequence (P10721 26-976 V559D/V654A): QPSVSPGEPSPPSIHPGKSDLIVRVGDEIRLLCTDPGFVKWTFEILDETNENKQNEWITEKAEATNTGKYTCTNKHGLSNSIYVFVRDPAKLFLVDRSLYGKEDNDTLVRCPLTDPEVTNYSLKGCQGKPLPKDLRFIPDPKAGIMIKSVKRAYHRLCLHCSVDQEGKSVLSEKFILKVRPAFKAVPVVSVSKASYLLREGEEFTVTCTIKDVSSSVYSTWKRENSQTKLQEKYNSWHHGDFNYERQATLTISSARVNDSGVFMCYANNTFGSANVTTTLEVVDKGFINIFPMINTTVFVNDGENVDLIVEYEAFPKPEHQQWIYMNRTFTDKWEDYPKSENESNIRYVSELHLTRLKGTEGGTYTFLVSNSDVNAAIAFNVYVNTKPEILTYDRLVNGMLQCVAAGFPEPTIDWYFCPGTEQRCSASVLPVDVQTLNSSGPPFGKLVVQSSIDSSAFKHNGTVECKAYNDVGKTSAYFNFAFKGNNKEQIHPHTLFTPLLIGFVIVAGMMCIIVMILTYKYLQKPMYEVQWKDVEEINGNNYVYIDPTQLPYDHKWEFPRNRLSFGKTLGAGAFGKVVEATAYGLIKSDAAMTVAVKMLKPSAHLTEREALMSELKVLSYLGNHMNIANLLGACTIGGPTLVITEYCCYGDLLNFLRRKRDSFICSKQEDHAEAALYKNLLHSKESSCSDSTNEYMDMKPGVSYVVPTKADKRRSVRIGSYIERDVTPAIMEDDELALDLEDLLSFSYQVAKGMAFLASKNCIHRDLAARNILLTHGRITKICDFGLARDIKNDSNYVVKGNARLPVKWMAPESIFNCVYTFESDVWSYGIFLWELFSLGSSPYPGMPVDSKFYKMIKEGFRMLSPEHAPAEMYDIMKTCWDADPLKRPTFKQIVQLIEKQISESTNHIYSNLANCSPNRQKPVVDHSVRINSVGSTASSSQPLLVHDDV
Method: as §1

SIK = target: T3, SIK (Homo sapiens, UniProt P57059); conditions: 1 μM
T3 construct: DNA tag (qPCR read-out)
Method: as §1

PIK4CB = target: T4, PIK4CB (Homo sapiens, UniProt Q9UBF8)
T4 construct: DNA tag (qPCR read-out)
Method: as §1

PIK3CA(H1047Y) = target: T5, PIK3CA(H1047Y) (Homo sapiens, UniProt P42336, H1047Y)
T5 construct: DNA tag (qPCR read-out)
Method: as §1

[1] = target: T6, RSK4(Kin.Dom.1-N-terminal) (Homo sapiens, UniProt Q9UK32); conditions: 1 μM
T6 construct: RSK4(Kin.Dom.1-N-terminal); DNA tag (qPCR read-out)
T6 sequence (Q9UK32 73-330 limits assumed): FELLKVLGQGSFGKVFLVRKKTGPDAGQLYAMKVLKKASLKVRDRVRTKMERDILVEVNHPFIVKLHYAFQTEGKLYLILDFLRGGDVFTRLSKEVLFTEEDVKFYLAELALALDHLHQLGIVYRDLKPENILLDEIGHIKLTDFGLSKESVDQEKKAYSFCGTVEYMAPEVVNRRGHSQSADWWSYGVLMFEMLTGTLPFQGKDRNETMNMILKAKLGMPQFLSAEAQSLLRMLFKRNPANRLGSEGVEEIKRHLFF
Method: as §1

BRK = target: T7, BRK (Homo sapiens, UniProt Q13882)
T7 construct: DNA tag (qPCR label); purchased Ambit Kinomescan (contract screening)
T7 sequence (Q13882 whole entry): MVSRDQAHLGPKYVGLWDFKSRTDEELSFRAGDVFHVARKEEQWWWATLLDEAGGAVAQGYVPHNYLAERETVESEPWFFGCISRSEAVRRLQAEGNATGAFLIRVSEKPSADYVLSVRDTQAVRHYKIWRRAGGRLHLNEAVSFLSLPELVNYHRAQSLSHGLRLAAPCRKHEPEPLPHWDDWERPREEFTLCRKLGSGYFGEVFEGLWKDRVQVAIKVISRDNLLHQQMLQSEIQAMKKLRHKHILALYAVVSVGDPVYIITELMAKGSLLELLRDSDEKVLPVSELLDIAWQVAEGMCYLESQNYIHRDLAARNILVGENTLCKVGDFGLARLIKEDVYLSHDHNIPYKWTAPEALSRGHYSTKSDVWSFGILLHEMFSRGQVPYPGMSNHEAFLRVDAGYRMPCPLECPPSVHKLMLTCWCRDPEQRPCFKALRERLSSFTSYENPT
Method: as §1

EIF2AK1 = target: T8, EIF2AK1 (Homo sapiens, UniProt Q9BQI3)
T8 construct: DNA tag (qPCR read-out)
Method: as §1

HIPK1 = target: T9, HIPK1 (Homo sapiens, UniProt Q86Z02)
T9 construct: DNA tag (qPCR read-out); purchased Ambit Kinomescan
Method: as §1

PDGFRB = PDGFRB (Homo sapiens, UniProt P09619)
Method: as §1

NIM1 = NIM1 (Homo sapiens, UniProt Q8IY84)
Method: as §1

p38-delta = p38-delta (Homo sapiens, UniProt O15264)
p38-delta, sequence (O15264 whole entry): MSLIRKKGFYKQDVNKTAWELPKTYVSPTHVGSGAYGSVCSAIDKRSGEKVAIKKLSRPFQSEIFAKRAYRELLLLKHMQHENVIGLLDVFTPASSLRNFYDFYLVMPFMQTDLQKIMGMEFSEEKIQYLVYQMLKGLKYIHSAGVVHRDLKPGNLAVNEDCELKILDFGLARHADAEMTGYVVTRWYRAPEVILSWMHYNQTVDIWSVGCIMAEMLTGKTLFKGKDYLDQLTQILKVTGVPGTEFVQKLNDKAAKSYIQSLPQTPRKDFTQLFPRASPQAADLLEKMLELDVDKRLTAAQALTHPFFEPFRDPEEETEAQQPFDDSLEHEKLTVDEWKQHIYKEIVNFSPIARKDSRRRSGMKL
Method: as §1

CSNK1D = target: T10, CSNK1D (Homo sapiens, UniProt P48730)
T10 construct: DNA tag (qPCR read-out); purchased Ambit Kinomescan
Method: as §1

KIT = KIT (Homo sapiens, UniProt P10721)
KIT, sequence (P10721 26-976): as the sequence (P10721 26-976 V559D/V654A) above, with D534V, A629V counted along it
Method: as §1

EGFR(L861Q) = EGFR(L861Q) (Homo sapiens, UniProt P00533, L861Q); conditions: 1 μM
Method: as §1

PRKCI = target: T11, PRKCI (Homo sapiens, UniProt P41743)
T11 construct: DNA tag (qPCR read-out)
T11 sequence (P41743 whole entry): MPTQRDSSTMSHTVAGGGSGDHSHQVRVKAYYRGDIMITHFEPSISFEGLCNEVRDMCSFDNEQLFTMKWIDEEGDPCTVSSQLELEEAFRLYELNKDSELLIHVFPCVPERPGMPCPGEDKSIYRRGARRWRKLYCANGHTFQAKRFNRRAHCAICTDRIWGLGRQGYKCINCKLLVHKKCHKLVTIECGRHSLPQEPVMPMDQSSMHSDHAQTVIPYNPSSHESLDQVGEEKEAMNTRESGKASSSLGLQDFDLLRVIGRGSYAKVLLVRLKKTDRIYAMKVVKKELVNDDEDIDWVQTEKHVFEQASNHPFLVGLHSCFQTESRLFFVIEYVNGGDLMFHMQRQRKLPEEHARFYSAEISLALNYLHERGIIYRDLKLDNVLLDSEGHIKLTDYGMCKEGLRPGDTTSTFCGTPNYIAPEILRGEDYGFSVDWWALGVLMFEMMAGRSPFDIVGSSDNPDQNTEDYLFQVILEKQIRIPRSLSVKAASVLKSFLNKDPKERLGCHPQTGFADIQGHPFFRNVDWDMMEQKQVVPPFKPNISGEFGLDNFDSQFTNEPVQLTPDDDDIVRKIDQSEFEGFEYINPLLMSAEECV
Method: as §1

ULK2 = target: T12, ULK2 (Homo sapiens, UniProt Q8IYT8)
T12 construct: purchased Ambit (KINOMEscan Max service)
T12 sequence (Q8IYT8 whole entry): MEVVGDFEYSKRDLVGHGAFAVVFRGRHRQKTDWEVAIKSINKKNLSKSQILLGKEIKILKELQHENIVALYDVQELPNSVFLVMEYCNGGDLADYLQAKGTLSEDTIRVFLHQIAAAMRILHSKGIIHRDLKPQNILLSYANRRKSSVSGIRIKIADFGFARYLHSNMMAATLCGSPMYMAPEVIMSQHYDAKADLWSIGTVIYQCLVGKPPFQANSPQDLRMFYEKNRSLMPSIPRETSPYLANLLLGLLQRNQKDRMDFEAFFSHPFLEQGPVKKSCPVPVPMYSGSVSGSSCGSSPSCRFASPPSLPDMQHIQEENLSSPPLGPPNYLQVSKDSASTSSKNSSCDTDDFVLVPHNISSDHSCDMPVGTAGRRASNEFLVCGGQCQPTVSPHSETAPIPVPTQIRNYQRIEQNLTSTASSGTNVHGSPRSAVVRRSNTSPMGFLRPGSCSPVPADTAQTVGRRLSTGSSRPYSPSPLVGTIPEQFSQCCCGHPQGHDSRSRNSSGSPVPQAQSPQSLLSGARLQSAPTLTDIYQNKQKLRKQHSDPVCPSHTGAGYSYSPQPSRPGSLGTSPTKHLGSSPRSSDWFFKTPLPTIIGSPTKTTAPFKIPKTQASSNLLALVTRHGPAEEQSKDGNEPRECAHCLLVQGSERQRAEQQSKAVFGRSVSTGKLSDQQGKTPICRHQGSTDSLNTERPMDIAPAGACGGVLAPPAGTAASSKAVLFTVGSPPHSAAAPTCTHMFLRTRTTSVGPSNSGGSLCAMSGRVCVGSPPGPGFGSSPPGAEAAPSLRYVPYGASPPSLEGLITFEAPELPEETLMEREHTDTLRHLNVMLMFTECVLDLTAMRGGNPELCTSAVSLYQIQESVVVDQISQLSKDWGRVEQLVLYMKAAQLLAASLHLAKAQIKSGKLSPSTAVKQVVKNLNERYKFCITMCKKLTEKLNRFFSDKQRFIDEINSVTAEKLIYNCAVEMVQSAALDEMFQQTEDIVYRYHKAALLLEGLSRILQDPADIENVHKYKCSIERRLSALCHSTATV
Method: as §1

[2] = target: T13, TYK2(JH1domain-catalytic) (Homo sapiens, UniProt P29597); conditions: 1 μM
T13 construct: TYK2(JH1domain-catalytic); purchased Ambit Kinomescan (contract screening service)
Method: as §1

AKT3 = target: T14, AKT3 (Homo sapiens, UniProt Q9Y243)
T14 construct: purchased Ambit (KINOMEscan Max service)
Method: as §1

NDR1 = NDR1 (Homo sapiens, UniProt Q15208)
Method: as §1

EGFR = target: T15, EGFR (Homo sapiens, UniProt P00533); conditions: 1 μM
T15 construct: purchased Ambit (KINOMEscan Max panel service)
Method: as §1

CLK4 = target: T16, CLK4 (Homo sapiens, UniProt Q9HAZ1)
T16 construct: DNA tag (qPCR read-out); purchased Ambit Kinomescan
Method: as §1

DMPK2 = DMPK2 (Homo sapiens, UniProt Q6DT37)
Method: as §1

BTK = target: T17, BTK (Homo sapiens, UniProt Q06187); conditions: 1 μM
T17 construct: purchased Ambit (KINOMEscan Max service)
Method: as §1

CAMK2B = target: T18, CAMK2B (Homo sapiens, UniProt Q13554)
T18 construct: purchased Ambit Kinomescan (contract screening)
Method: as §1

GRK7 = target: T19, GRK7 (Homo sapiens, UniProt Q8WTQ7)
T19 construct: purchased Ambit Kinomescan (contract panel, KINOMEscan Max)
Method: as §1

MST2 = MST2 (Homo sapiens, UniProt Q13188)
Method: as §1

[3] = target: T20, ABL1(F317L)-nonphosphorylated (Homo sapiens, UniProt P00519, F317L)
T20 construct: purchased Ambit (KINOMEscan Max service)
Method: as §1

MAK = MAK (Homo sapiens, UniProt P20794)
Method: as §1

PLK2 = target: T21, PLK2 (Homo sapiens, UniProt Q9NYY3); conditions: 1 μM
T21 construct: DNA tag (qPCR read-out)
T21 sequence (Q9NYY3 whole entry): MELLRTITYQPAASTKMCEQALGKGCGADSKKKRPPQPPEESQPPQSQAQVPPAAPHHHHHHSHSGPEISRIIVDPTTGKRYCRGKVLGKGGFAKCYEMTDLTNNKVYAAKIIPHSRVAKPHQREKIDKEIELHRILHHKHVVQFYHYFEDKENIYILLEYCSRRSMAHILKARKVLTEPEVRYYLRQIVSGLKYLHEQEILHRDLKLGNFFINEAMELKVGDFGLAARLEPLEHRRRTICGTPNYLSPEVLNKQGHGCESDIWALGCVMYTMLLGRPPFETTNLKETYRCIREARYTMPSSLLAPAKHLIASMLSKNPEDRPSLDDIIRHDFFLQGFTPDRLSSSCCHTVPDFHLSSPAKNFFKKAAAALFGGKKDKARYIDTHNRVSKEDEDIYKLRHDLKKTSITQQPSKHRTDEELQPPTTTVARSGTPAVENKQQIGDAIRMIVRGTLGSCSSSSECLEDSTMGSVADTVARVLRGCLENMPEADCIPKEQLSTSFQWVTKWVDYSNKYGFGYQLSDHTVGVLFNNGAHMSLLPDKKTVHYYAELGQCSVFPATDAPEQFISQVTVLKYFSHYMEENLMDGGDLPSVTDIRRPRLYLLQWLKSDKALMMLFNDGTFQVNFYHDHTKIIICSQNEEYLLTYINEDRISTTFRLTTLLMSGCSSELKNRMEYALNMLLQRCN
Method: as §1

CSF1R = target: T22, CSF1R (Homo sapiens, UniProt P07333)
T22 construct: purchased Ambit (KINOMEscan Max panel service)
Method: as §1

SRPK1 = target: T23, SRPK1 (Homo sapiens, UniProt Q96SB4)
T23 construct: purchased Ambit (KINOMEscan Max service)
T23 sequence (Q96SB4 whole entry): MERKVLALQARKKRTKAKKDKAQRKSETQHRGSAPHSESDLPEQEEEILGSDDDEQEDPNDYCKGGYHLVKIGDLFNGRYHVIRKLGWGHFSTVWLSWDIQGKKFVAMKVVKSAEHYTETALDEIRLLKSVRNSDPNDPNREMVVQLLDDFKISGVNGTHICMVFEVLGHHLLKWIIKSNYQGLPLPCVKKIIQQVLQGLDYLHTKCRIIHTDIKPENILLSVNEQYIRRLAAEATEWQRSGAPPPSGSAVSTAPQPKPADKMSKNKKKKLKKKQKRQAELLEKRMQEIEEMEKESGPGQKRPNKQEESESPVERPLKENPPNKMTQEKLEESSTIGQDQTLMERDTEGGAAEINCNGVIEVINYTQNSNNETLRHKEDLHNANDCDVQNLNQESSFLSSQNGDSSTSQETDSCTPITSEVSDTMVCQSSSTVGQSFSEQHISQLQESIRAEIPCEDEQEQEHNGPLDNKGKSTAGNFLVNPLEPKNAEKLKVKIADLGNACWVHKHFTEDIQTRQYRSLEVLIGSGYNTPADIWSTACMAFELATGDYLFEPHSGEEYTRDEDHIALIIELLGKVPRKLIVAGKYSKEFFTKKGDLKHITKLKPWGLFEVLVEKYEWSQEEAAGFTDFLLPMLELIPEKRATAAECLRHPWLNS
Method: as §1

FLT3 = target: T24, FLT3 (Homo sapiens, UniProt P36888)
T24 construct: purchased Ambit Kinomescan (contract panel, KINOMEscan Max)
Method: as §1

NCCCNc1nc2c(Br)c(Br)c(Br)c(Br)c2[nH]1 [Compound 11, N-(3-aminopropyl)-4,5,6,7-tetrabromo-1H-benzo[d]imidazol-2-amine]
remaining binding at 1 µM (CSNK2A1): 100%
remaining binding at 1 µM (KIT(V559D.V654A)): 100%
% binding (SIK): 100%
remaining binding at 1 µM (PIK4CB): 100%
remaining binding at 1 µM (PIK3CA(H1047Y)): 100%
% binding [1]: 100%
remaining binding at 1 µM (BRK): 100%
remaining binding at 1 µM (EIF2AK1): 89%
remaining binding at 1 µM (HIPK1): 2.8%
remaining binding at 1 µM (PDGFRB): 80%
remaining binding at 1 µM (NIM1): 99%
remaining binding at 1 µM (p38-delta): 100%
remaining binding at 1 µM (CSNK1D): 17%
remaining binding at 1 µM (KIT): 96%
% binding (EGFR(L861Q)): 96%
remaining binding at 1 µM (PRKCI): 100%
remaining binding at 1 µM (ULK2): 60%
% binding [2]: 100%
remaining binding at 1 µM (AKT3): 83%
remaining binding at 1 µM (NDR1): 100%
% binding (EGFR): 100%
remaining binding at 1 µM (CLK4): 22%
remaining binding at 1 µM (DMPK2): 96%
% binding (BTK): 85%
remaining binding at 1 µM (CAMK2B): 97%
remaining binding at 1 µM (GRK7): 100%
remaining binding at 1 µM (MST2): 100%
remaining binding at 1 µM [3]: 67%
remaining binding at 1 µM (MAK): 79%
% binding (PLK2): 31%
remaining binding at 1 µM (CSF1R): 100%
remaining binding at 1 µM (SRPK1): 67%
remaining binding at 1 µM (FLT3): 100%
